Patent US6858739B2, “Indole and benzimidazole 15-lipoxygenase inhibitors” (Warner-Lambert Company, priority 2000, dated 2005)

Tests used:
[1] = molecular target: T1, human 15-LO (Homo sapiens, UniProt P16050); assay: 15-LO inhibition, human enzyme; format: biochemical; conditions: linoleic acid as substrate
T1 sequence (P16050 1-662): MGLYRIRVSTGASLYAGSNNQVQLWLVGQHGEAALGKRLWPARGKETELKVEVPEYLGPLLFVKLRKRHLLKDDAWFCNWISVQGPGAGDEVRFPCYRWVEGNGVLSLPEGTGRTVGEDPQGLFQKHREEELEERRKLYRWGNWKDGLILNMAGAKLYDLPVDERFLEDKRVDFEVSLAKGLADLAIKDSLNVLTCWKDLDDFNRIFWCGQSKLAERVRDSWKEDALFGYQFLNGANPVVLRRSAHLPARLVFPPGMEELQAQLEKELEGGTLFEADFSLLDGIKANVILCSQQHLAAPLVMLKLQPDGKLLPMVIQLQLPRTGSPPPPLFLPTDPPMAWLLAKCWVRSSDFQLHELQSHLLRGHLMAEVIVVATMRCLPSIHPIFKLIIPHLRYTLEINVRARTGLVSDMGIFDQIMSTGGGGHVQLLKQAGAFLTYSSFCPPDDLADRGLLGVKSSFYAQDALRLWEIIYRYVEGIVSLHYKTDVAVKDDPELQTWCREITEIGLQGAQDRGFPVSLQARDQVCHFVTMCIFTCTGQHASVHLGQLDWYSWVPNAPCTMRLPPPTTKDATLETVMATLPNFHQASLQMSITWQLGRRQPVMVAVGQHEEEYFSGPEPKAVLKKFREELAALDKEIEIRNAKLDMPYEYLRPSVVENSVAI
Protocol: (§1) The compounds described above are effective inhibitors of 15-LO when evaluated in standard assays routinely utilized to measure 15-LO activity. Specifically, representative compounds were evaluated by the methods described by Auerbach et al., Analytical Biochemistry, 1992;201:375-380. Two in vitro assays were utilized, one utilizing rabbit reticulocyte 15-LO, the other using human 15-LO. Both used linoleic acid as substrate, to enzymatically produce a peroxide oxidation product known as 13(S)-HPODE. N-Benzoyl leucomethylene blue was utilized as a colorimetric reagent for detection and quantification of the peroxide formation. Also, HPLC was utilized to quantify the oxidation following incubation at 4° C. for 10 minutes.
(§2) Data Column 1 gives the concentration of compound required to inhibit 50% of the activity of 15-LO (IC50) when measured by the HPLC method of Auerbach et al. using rabbit enzymes, and data Column 2 gives data from human 15-LO enzyme.

[2] = molecular target: T2, rabbit reticulocyte 15-LO (Oryctolagus cuniculus, UniProt P12530); assay: 15-LO inhibition, rabbit reticulocyte enzyme (HPLC method of Auerbach et al.); format: biochemical; conditions: linoleic acid as substrate, incubation at 4° C. for 10 minutes
T2 construct: one utilizing rabbit reticulocyte 15-LO; from tissue; host or cells: rabbit reticulocytes
T2 sequence (P12530 1-663): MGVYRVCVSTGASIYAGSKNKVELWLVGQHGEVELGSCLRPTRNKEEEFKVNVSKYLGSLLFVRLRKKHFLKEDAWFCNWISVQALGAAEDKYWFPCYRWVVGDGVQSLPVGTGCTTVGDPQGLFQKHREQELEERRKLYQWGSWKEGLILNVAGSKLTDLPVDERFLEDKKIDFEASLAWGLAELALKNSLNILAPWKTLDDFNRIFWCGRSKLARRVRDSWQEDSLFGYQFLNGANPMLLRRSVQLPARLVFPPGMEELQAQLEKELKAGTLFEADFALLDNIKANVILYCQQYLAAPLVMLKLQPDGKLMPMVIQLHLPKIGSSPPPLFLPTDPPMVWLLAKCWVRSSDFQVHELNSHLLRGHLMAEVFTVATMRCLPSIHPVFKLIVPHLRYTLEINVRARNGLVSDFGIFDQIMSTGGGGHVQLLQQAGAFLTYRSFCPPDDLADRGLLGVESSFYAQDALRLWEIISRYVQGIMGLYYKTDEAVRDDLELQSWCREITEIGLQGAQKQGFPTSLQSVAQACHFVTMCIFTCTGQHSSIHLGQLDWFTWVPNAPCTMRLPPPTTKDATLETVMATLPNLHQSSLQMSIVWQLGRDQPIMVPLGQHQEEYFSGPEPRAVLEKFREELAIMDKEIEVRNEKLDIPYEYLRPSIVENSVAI
Protocol: as §1, §2

| Structure (SMILES) | melting point [°C] | IC50 [1] [nM] | IC50 [2] [nM] | inhibition at 10 µM ([1]; at 10 micromolar) [%] |
| --- | --- | --- | --- | --- |
| COc1ccc(-c2cc3ccccc3[nH]2)cc1N [Example 1, 5-(1H-Indol-2-yl)-2-methoxy-phenylamine] | 208 to 209 | 23 | 113 |  |
| COc1ccc(-c2cc3ccccc3[nH]2)cc1NC(=S)Nc1cc(Cl)cc(Cl)c1 [Example 2, 1-(3,5-Dichloro-phenyl)-3-[5-(1H-indol-2-yl)-2-methoxy-phenyl]-thiourea] | 199 to 201 | 29 | 11 |  |
| COc1ccc(-c2cc3cc(F)c(F)cc3[nH]2)cc1N [Example 3, 5-(5,6-Difluoro-1H-indol-2-yl)-2-methoxy-phenylamine] | 210 to 211 | 53 | 27 |  |
| COc1ccc(-c2cc3cc(F)c(F)cc3[nH]2)cc1NC(=S)Nc1cc(Cl)cc(Cl)c1 [Example 4, 1-(3,5-Dichloro-phenyl)-3-[5-(5,6-difluoro-1H-indol-2-yl)-2-methoxy-phenyl]-thiourea] | 203 to 205 | 60 | 30 |  |
| COc1ccc(-c2cc3cc(F)c(F)cc3[nH]2)cc1NC(=S)Nc1ccc(C(=O)O)cc1 [Example 5, 4-{3-[5-(5,6-Difluoro-1H-indol-2-yl)-2-methoxy-phenyl]-thioureido}-benzoic acid] | 201 to 203 | 13 | 11 |  |
| COc1ccc(-c2cc3cc(F)c(F)cc3[nH]2)cc1NC(=S)Nc1cccc(C(=O)O)c1 [Example 6, 3-{3-[5-(5,6-Difluoro-1H-indol-2-yl)-2-methoxy-phenyl]-thioureido}-benzoic acid] | 221 to 223 | 25 | 2 |  |
| COc1ccc(-c2cc3cc(F)c(F)cc3[nH]2)cc1NS(C)(=O)=O [Example 7, N-[5-(5,6-Difluoro-1H-indol-2-yl)-2-methoxy-phenyl]-methanesulfonamide] | 254 to 256 | 19 | 10 |  |
| COc1ccc(-c2cc3cc(F)c(F)cc3[nH]2)cc1NS(=O)(=O)c1cc(Cl)cc(Cl)c1 [Example 8, 3,5-Dichloro-N-[5-(5,6-difluoro-1H-indol-2-yl)-2-methoxy-phenyl]-benzenesulfonamide] | 217 to 219 | 73 | 19 |  |
| COc1ccc(-c2cc3cc(F)c(F)cc3[nH]2)cc1NS(=O)(=O)c1cccs1 [Example 9, Thiophene-2-sulfonic acid [5-(5,6-difluoro-1H-indol-2-yl)-2-methoxy-phenyl]-amide] | 211 to 213 | 7 | 40 |  |
| COc1ccc(-c2nc3cc(Cl)c(Cl)cc3n2C(=O)OCc2ccccc2)cc1NS(=O)(=O)c1cccs1 [Example 10, 5,6-Dichloro-2-[4-methoxy-3-(thiophene-2-sulfonylamino)-phenyl]-benzoimidazole-1-carboxylic acid benzyl ester] | 195 to 198 |  | 1390 | 81 |
| COc1ccc(-c2cc3cc(F)c(F)cc3[nH]2)cc1NCc1cccc(O)c1 [Example 11, 3-{[5-(5,6-Difluoro-1H-indol-2-yl)-2-methoxy-phenylamine]-methyl}-phenol] |  | 106 | 24 |  |
| COc1ccc(-c2cc3cc(F)c(F)cc3[nH]2)cc1NCc1cccs1 [Example 12, [5-(5,6-Difluoro-1H-indol-2-yl)-2-methoxy-phenyl]-thiophen-2-ylmethyl-amine] | 190 to 192 | 461 | 45 |  |
| COc1ccc(-c2cc3cc(F)c(F)cc3[nH]2)cc1Nc1cccc(OCc2ccccc2)c1 [Example 53, [5-(5,6-Difluoro-1H-indol-2-yl)-2-methoxy-phenyl]-(3-benzyloxy-phenyl)-amine] |  | 22 | 16 |  |
| COc1ccc(-c2cc3cc(Cl)c(Cl)cc3[nH]2)cc1Nc1cccc(C(F)(F)F)c1 [Example 54, [5-(5,6-Dichloro-1H-indol-2-yl)-2-methoxy-phenyl]-(3-trifluoro-methylphenyl)-amine] | 193 to 194 | 127 |  |  |
